*1 amine or outer side, *2 acyl side, *3 side chain or, on linkers, in order; H or OH if unused. Where a SMILES comes first, the peptide text is derived from it. [ ]: non-standard residue; d: D form. The star is where a group is joined. ξ: configuration not given here. Fluorescein(5-NHCS) = O=C1OC2(c3ccc(O)cc3Oc3cc(O)ccc32)c2cc(NC(=S)*)ccc21; X18 = O=C([C@@H]1C[C@@H](O/N=C\c2ccc3c(c2)Cc2ccccc2-3)CN1[*:1])[*:2]; X19 = O=C([C@@H]1C[C@@H](O/N=C\c2ccc([N+](=O)[O-])cc2)CN1[*:1])[*:2]; X23 = O=C([C@@H]1[C@@H](O/N=C\c2ccc(OCc3ccccc3)cc2)CCN1[*:1])[*:2]; X33 = CC(/C=N\O[C@H]1C[C@@H](C(=O)[*:2])N([*:1])C1)=C\c1ccccc1; X17 = COc1ccc(/C=N\O[C@@H]2C[C@@H](C(=O)[*:2])N([*:1])C2)cc1O; X27 = N#Cc1ccc(/C=N\O[C@@H]2C[C@@H](C(=O)[*:2])N([*:1])C2)cc1; X21 = O=C([C@@H]1[C@@H](O/N=C\c2cnc3ccccc3c2)CCN1[*:1])[*:2]; X26 = O=C([C@@H]1C[C@@H](O/N=C\CCc2ccccc2)CN1[*:1])[*:2]; X24 = O=C([C@@H]1[C@@H](O/N=C\c2ccccc2)CCN1[*:1])[*:2]; X20 = O=C(O)CC/C=N\O[C@H]1CCN([*:1])[C@@H]1C(=O)[*:2]; ξPip = O=C(O)C1CCCCN1; Ava = NCCCCC(=O)O
target: T1, Tumor susceptibility gene 101 protein (Homo sapiens, UniProt Q99816); assay: Binding affinity to Tsg101
T1 sequence (Q99816 whole entry): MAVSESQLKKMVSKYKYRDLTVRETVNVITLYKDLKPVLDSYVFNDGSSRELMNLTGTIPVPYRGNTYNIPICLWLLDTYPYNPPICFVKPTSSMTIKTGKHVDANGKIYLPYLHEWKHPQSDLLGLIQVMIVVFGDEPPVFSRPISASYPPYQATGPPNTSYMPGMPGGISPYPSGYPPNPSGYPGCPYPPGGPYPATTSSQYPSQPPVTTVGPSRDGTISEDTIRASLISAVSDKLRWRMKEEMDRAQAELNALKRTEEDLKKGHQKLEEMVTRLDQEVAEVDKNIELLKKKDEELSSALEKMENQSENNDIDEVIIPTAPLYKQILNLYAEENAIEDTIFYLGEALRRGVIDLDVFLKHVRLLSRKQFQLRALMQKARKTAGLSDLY

Row | SMILES | IC50 [µM]
1 | COc1ccc(/C=N\O[C@@H]2C[C@@H](C(=O)N[C@@H](CCC(=O)O)C(=O)N[C@@H](CCC(=O)O)C(N)=O)N(C(=O)C3CCCCN3C(=O)[C@H](C)NC(=O)[C@@H](NC(=O)[C@@H]3CCCN3C(=O)[C@H](CCC(=O)O)NC(=O)[C@@H]3CCCN3C(=O)CCCCNC(=S)Nc3ccc4c(c3)C3(OC4=O)c4ccc(O)cc4Oc4cc(O)ccc43)[C@@H](C)O)C2)cc1O (stereo not given in full) ({Fluorescein(5-NHCS)-Ava}-PEPTA[ξPip][X17]EE-NH2) | 23
2 | C[C@H](NC(=O)[C@@H](NC(=O)[C@@H]1CCCN1C(=O)[C@H](CCC(=O)O)NC(=O)[C@@H]1CCCN1C(=O)CCCCNC(=S)Nc1ccc2c(c1)C1(OC2=O)c2ccc(O)cc2Oc2cc(O)ccc21)[C@@H](C)O)C(=O)N1CCCCC1C(=O)N1C[C@H](O/N=C\c2ccc([N+](=O)[O-])cc2)C[C@H]1C(=O)N[C@@H](CCC(=O)O)C(=O)N[C@@H](CCC(=O)O)C(N)=O (stereo not given in full) ({Fluorescein(5-NHCS)-Ava}-PEPTA[ξPip][X19]EE-NH2) | 21
3 | C[C@H](NC(=O)[C@@H](NC(=O)[C@@H]1CCCN1C(=O)[C@H](CCC(=O)O)NC(=O)[C@@H]1CCCN1C(=O)CCCCNC(=S)Nc1ccc2c(c1)C1(OC2=O)c2ccc(O)cc2Oc2cc(O)ccc21)[C@@H](C)O)C(=O)N1CCCCC1C(=O)N1CC[C@H](O/N=C\c2cnc3ccccc3c2)[C@H]1C(=O)N[C@@H](CCC(=O)O)C(=O)N[C@@H](CCC(=O)O)C(N)=O (stereo not given in full) ({Fluorescein(5-NHCS)-Ava}-PEPTA[ξPip][X21]EE-NH2) | 19
4 | C[C@H](NC(=O)[C@@H](NC(=O)[C@@H]1CCCN1C(=O)[C@H](CCC(=O)O)NC(=O)[C@@H]1CCCN1C(=O)CCCCNC(=S)Nc1ccc2c(c1)C1(OC2=O)c2ccc(O)cc2Oc2cc(O)ccc21)[C@@H](C)O)C(=O)N1CCCCC1C(=O)N1CC[C@H](O/N=C\c2ccccc2)[C@H]1C(=O)N[C@@H](CCC(=O)O)C(=O)N[C@@H](CCC(=O)O)C(N)=O (stereo not given in full) ({Fluorescein(5-NHCS)-Ava}-PEPTA[ξPip][X24]EE-NH2) | 15
5 | C[C@H](NC(=O)[C@@H](NC(=O)[C@@H]1CCCN1C(=O)[C@H](CCC(=O)O)NC(=O)[C@@H]1CCCN1C(=O)CCCCNC(=S)Nc1ccc2c(c1)C1(OC2=O)c2ccc(O)cc2Oc2cc(O)ccc21)[C@@H](C)O)C(=O)N1CCCCC1C(=O)N1C[C@H](O/N=C\CCc2ccccc2)C[C@H]1C(=O)N[C@@H](CCC(=O)O)C(=O)N[C@@H](CCC(=O)O)C(N)=O (stereo not given in full) ({Fluorescein(5-NHCS)-Ava}-PEPTA[ξPip][X26]EE-NH2) | 26
6 | C[C@H](NC(=O)[C@@H](NC(=O)[C@@H]1CCCN1C(=O)[C@H](CCC(=O)O)NC(=O)[C@@H]1CCCN1C(=O)CCCCNC(=S)Nc1ccc2c(c1)C1(OC2=O)c2ccc(O)cc2Oc2cc(O)ccc21)[C@@H](C)O)C(=O)N1CCCCC1C(=O)N1C[C@H](O/N=C\c2ccc(C#N)cc2)C[C@H]1C(=O)N[C@@H](CCC(=O)O)C(=O)N[C@@H](CCC(=O)O)C(N)=O (stereo not given in full) ({Fluorescein(5-NHCS)-Ava}-PEPTA[ξPip][X27]EE-NH2) | 20
7 | CC(/C=N\O[C@H]1C[C@@H](C(=O)N[C@@H](CCC(=O)O)C(=O)N[C@@H](CCC(=O)O)C(N)=O)N(C(=O)C2CCCCN2C(=O)[C@H](C)NC(=O)[C@@H](NC(=O)[C@@H]2CCCN2C(=O)[C@H](CCC(=O)O)NC(=O)[C@@H]2CCCN2C(=O)CCCCNC(=S)Nc2ccc3c(c2)C2(OC3=O)c3ccc(O)cc3Oc3cc(O)ccc32)[C@@H](C)O)C1)=C\c1ccccc1 (stereo not given in full) ({Fluorescein(5-NHCS)-Ava}-PEPTA[ξPip][X33]EE-NH2) | 58

Continued by falling IC50, values first:

Row | IC50 [µM] | SMILES
8 | 27 | C[C@H](NC(=O)[C@@H](NC(=O)[C@@H]1CCCN1C(=O)[C@H](CCC(=O)O)NC(=O)[C@@H]1CCCN1C(=O)CCCCNC(=S)Nc1ccc2c(c1)C1(OC2=O)c2ccc(O)cc2Oc2cc(O)ccc21)[C@@H](C)O)C(=O)N1CCCCC1C(=O)N1C[C@H](O/N=C\c2ccc3c(c2)Cc2ccccc2-3)C[C@H]1C(=O)N[C@@H](CCC(=O)O)C(=O)N[C@@H](CCC(=O)O)C(N)=O (stereo not given in full) ({Fluorescein(5-NHCS)-Ava}-PEPTA[ξPip][X18]EE-NH2)
9 | 18 | C[C@H](NC(=O)[C@@H](NC(=O)[C@@H]1CCCN1C(=O)[C@H](CCC(=O)O)NC(=O)[C@@H]1CCCN1C(=O)CCCCNC(=S)Nc1ccc2c(c1)C1(OC2=O)c2ccc(O)cc2Oc2cc(O)ccc21)[C@@H](C)O)C(=O)N1CCCCC1C(=O)N1CC[C@H](O/N=C\c2ccc(OCc3ccccc3)cc2)[C@H]1C(=O)N[C@@H](CCC(=O)O)C(=O)N[C@@H](CCC(=O)O)C(N)=O (stereo not given in full) ({Fluorescein(5-NHCS)-Ava}-PEPTA[ξPip][X23]EE-NH2)
10 | 16 | C[C@H](NC(=O)[C@@H](NC(=O)[C@@H]1CCCN1C(=O)[C@H](CCC(=O)O)NC(=O)[C@@H]1CCCN1C(=O)CCCCNC(=S)Nc1ccc2c(c1)C1(OC2=O)c2ccc(O)cc2Oc2cc(O)ccc21)[C@@H](C)O)C(=O)N1CCCCC1C(=O)N1CC[C@H](O/N=C\CCC(=O)O)[C@H]1C(=O)N[C@@H](CCC(=O)O)C(=O)N[C@@H](CCC(=O)O)C(N)=O (stereo not given in full) ({Fluorescein(5-NHCS)-Ava}-PEPTA[ξPip][X20]EE-NH2)
